Reference: patent publication US6800637B2, “Antidepressant indolealkyl derivatives of heterocycle-fused benzodioxan methylamines” (Wyeth, priority 2002, dated 2004)

Legend:
human 5-HT1A receptors = molecular target: T1, human 5-HT1A receptors (Homo sapiens, UniProt P08908); experiment: Displacement of [3H] 8-OHDPAT from 5-HT1A receptor, CHO cells stably transfected with human 5-HT1A receptors; format: binding; settings: CHO cells with human 5-HT1A receptors, read-out: 5-HT1A Receptor Affinity KI
T1 construct: expressed in transfected cells; host or cells: CHO cells
T1 sequence (P08908 1-422): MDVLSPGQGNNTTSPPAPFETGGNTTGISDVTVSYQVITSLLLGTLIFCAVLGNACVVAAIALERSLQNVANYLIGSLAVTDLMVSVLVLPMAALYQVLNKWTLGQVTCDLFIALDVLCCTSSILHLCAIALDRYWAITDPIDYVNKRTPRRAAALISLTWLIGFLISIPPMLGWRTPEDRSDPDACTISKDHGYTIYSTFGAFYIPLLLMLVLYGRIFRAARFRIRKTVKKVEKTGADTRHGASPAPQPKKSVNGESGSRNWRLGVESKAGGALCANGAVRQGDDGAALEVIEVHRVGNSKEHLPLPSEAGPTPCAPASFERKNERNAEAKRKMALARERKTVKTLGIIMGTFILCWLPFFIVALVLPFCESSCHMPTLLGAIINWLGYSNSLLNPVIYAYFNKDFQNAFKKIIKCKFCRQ
Text: High affinity for the serotonin 5-HT1A receptor was established by testing the claimed compound's ability to displace [^3H] 8-OHDPAT (dipropylaminotetralin) from the 5-HT1A serotonin receptor following a modification of the procedure of Hall et al., J. Neurochem. 44, 1685 (1985) which utilizes CHO cells stably transfected with human 5-HT1A receptors.

serotonin transporter = molecular target: T2, serotonin transporter (Rattus norvegicus, UniProt P31652); experiment: Displacement of 3H-paroxetine from male rat frontal cortical membranes (serotonin transporter affinity); format: binding; settings: read-out: 5-HT Transporter Affinity KI
T2 construct: displace ^3H-paroxetine from male rat frontal cortical membranes; from tissue; host or cells: male rat frontal cortex membranes

[1] = molecular target: T3, cloned human 5HT1A receptors (Homo sapiens, UniProt P08908); experiment: 35S-GTPγS binding assay, membranes containing cloned human 5HT1A receptors; format: biochemical; settings: for IC50: antagonist potency, reversal of the effects of the standard agonist 8-OHDPAT, read-out: 5-HT1A Function IC50; for Emax: maximum inhibitory effect, read-out: 5-HT1A Function (Imax)
T3 construct: expressed in transfected cells
T3 sequence (P08908 1-422): T1 sequence (P08908 1-422)
Protocol: Antagonist activity at 5-HT1A receptors was established by using a ^35S-GTPγS binding assay similar to that used by Lazareno and Birdsall (Br. J. Pharmacol. 109: 1120, 1993), in which the test compound's ability to affect the binding of ^35S-GTPγS to membranes containing cloned human 5HT1A receptors was determined. Agonists produce an increase in binding whereas antagonists produce no increase but rather reverse the effects of the standard agonist 8-OHDPAT. The test compound's maximum inhibitory effect is represented as the Imax, while its potency is defined by the IC50.

T2 sequence (P31652 whole entry): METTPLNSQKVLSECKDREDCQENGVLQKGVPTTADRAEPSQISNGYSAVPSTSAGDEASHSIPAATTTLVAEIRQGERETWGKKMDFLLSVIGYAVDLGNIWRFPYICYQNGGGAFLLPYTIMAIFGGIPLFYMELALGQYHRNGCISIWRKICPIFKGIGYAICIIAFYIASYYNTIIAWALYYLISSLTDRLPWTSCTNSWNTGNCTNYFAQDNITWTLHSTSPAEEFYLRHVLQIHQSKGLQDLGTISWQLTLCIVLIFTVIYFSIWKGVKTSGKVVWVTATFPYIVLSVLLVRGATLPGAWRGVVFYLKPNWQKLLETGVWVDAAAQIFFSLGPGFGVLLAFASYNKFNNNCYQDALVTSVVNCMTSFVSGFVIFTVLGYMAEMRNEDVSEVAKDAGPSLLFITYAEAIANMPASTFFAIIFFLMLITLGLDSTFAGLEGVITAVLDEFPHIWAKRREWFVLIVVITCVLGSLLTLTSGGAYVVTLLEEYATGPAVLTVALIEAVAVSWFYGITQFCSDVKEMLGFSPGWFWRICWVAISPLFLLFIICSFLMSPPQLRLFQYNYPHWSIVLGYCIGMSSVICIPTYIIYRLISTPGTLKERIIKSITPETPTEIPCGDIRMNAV

Row | Compound | Ki (human 5-HT1A receptors) | Ki (serotonin transporter) | IC50 [1] | Emax [1]
1 | Cc1ccc2c3c(ccc2n1)OCC(CNCCCc1c[nH]c2c(F)cccc12)O3 (centres unmarked) [Example 8, N-[3-(7-Fluoro-1H-indol-3-yl)propyl]-N-(8-methyl-2,3-dihydro-[1,4]dioxino[2,3-f]quinolin-2-ylmethyl)amine] | 0.22 nM | 2.07 nM | 25.8 nM | 94.1%
2 | Cc1ccc2c3c(ccc2n1)OCC(CN(C)CCCc1c[nH]c2c(F)cc(F)cc12)O3 (centres unmarked) [Example 16, N-[3-(5,7-Difluoro-1H-indol-3-yl)propyl]-N-methyl-N-(8-methyl-2,3-dihydro-[1,4]dioxino[2,3-f]quinolin-2-ylmethyl)amine] | 2.51 nM | 1.8 nM | 125 nM | 100%
3 | Cc1ccc2c3c(ccc2n1)OC[C@H](CNCCCc1csc2ccc(Cl)cc12)O3 [Example 50] | 0.45 nM | 9.7 nM | 69 nM | 50%
4 | Cc1ccc2c3c(ccc2n1)OCC(CN(C)CCCCc1c[nH]c2ccc(F)cc12)O3 (centres unmarked) [Example 43, [4-(5-Fluoro-1H-indol-3-yl)-butyl]-methyl-(8-methyl-2,3-dihydro-[1,4]dioxino[2,3-f]quinolin-2-ylmethyl}-amine] | 13.1 nM | 0.5 nM | 344 nM | 100%
5 | Cc1ccc2c3c(ccc2n1)OCC(CNCCCn1ccc2c(F)cccc21)O3 (centres unmarked) [Example 46, [3-(4-Fluoro-indol-1-yl)-propyl]-(8-methyl-2,3-dihydro-[1,4]dioxino[2,3-f]quinolin-2-ylmethyl)-amine] | 0.05 nM | 6.7 nM | 31.4 nM | 85.6%
6 | Cc1ccc2c3c(ccc2n1)OC[C@H](CNCCCc1csc2ccccc12)O3 [Example 20] | 0.38 nM | 2.82 nM | 188 nM | 100%
7 | Cc1ccc2c3c(ccc2n1)OC[C@H](CN(C)CCCn1ccc2c(F)cccc21)O3 [Example 48] | 24.7 nM | 4.2 nM | 500 nM | 100%
8 | Cc1ccc2c3c(ccc2n1)OCC(CN(C)CCCCn1ccc2ccc(F)cc21)O3 (centres unmarked) [Example 47, [4-(6-Fluoro-indol-1-yl)-butyl]-methyl-(8-methyl-2,3-dihydro-[1,4]dioxino[2,3-f]quinolin-2-ylmethyl)-amine] | 4.42 nM | 1 nM | 191 nM | 75.2%
9 | Cc1ccc2c3c(ccc2n1)OCC(CN(C)CCCc1cn(C)c2ccc(C#N)cc12)O3 (centres unmarked) [Example 40, 1-Methyl-3-{3-[methyl-(8-methyl-2,3-dihydro-[1,4]dioxino[2,3-f]quinolin-2-ylmethyl)-amino]-propyl}-1H-indole-5-carbonitrile] | 17.7 nM | 7 nM | 1980 nM | 100%
10 | Cc1nc2ccc3c(c2o1)OC(CN(C)CCCc1c[nH]c2ccc(F)cc12)CO3 (centres unmarked) [Example 24, N-[3-(5-Fluoro-1H-indol-3-yl)propyl]-N-methyl-N-(2-methyl-7,8-dihydro[1,4]dioxino[2,3-g][1,3]benzoxazol-8-ylmethyl)amine] | 4.45 nM | 1.4 nM | 157 nM | 100%
11 | Cc1ccc2c3c(ccc2n1)OC[C@H](CNCCCCc1c[nH]c2ccc(C#N)cc12)O3 [Example 39, 3-{4-[(8-Methyl-2,3-dihydro-[1,4]dioxino[2,3-f]quinolin-2-ylmthyl)-amino]-butyl}-1H-indole-5-carbonitrile] | 0.85 nM | 0.5 nM | 263 nM | 78.5%
12 | Cc1ccc2c3c(ccc2n1)OC[C@H](CN(C)CCCc1csc2ccccc12)O3 [Example 22, N-[3-(1-Benzothien-3-yl)propyl]-N-methyl-N-(8-mthyl-2,3-dihydro-[1,4]dioxino[2,3-f]quinolin-2-ylmthyl)amin] | 7.12 nM | 4.3 nM | 878 nM | 85.5%
13 | Cc1nc2ccc3c(c2o1)O[C@@H](CNCCCc1c[nH]c2ccc(F)cc12)CO3 [Example 23, N-[3-(5-Fluoro-1H-indol-3-yl)propyl]-N-(2-methyl-7,8-dihydro-[1,4]dioxino[2,3-g][1,3]benzoxazol-8-ylmethyl)amine] | 0.7 nM | 1.85 nM | 19.3 nM | 85.8%
14 | Cc1ccc2c3c(ccc2n1)OCC(CN(C)CCCn1ccc2ccc(F)cc21)O3 (centres unmarked) [Example 34, [3-(6-Fluoro-indol-1-yl)-propyl]-methyl-(8-methyl-2,3-dihydro-[1,4]dioxino[2,3-f]quinolin-2-ylmethyl)-amine] | 0.29 nM | 8.1 nM | 193 nM | 100%
15 | CCc1ccc2c3c(ccc2n1)OCC(CNCCCc1c[nH]c2ccc(F)cc12)O3 (centres unmarked) [Example 5, N-[3-(5-Fluoro-1H-Indol-3-yl)propyl]-N-(8-ethyl-2,3-dihydro-[1,4]dioxino[2,3-f]quinolin-2-ylmethyl)amine] | 0.64 nM | 0.96 nM | 92.5 nM | 76.8%
16 | Cc1ccc2c3c(ccc2n1)OCC(CN(C)CCCCc1cn(C)c2ccc(F)cc12)O3 (centres unmarked) [Example 44, [4-(5-Fluoro-1-methyl-1H-indol-3-yl)-butyl]-methyl-(8-methyl-2,3-dihydro-[1,4]dioxino[2,3-f]quinolin-2-ylmethyl)-amine] | 9.99 nM | 3.4 nM | 372 nM | 100%
17 | Cc1ccc2c3c(ccc2n1)OC[C@H](CNCCCCc1csc2ccc(Cl)cc12)O3 [Example 49] | 0.73 nM | 23 nM | 99 nM | 33%
18 | COc1ccc2[nH]cc(CCNCC3COc4ccc5nc(C)ccc5c4O3)c2c1 (centres unmarked) [Example 1] | 2.03 nM | 31 nM | 88.6 nM | 80.3%
19 | Cc1ccc2c3c(ccc2n1)OC[C@H](CNCCCc1coc2ccccc12)O3 [Example 18] | 0.35 nM | 6.6 nM | 10.4 nM | 59.3%
20 | Cc1ccc2c3c(ccc2n1)OCC(CN(C)CCCc1cn(C)c2c(F)cc(F)cc12)O3 (centres unmarked) [Example 27, N-[3-(5,7-Difluoro-1-methyl-1H-indol-3-yl)propyl]-N-methyl-N-(8-methyl-2,3-dihydro-[1,4]dioxino[2,3-f]quinolin-2-ylmethyl)amine] | 52.9 nM | 6.7 nM | 341 nM | 100%
21 | Cc1nc2ccc3c(c2o1)O[C@@H](CN(C)CCCc1c[nH]c2ccc(C#N)cc12)CO3 [Example 31, 3-{3-[M thyl-(2-methyl-7,8-dihydro-[1,4]dioxino[2,3[-g][1,3]benzoxazol-8-ylmethyl)-amino]-propyl)}-1H-indole-5-carbonitrile] | 35.3 nM | 2.4 nM | 205 nM | 97.7%
22 | Cc1ccc2c3c(ccc2n1)OCC(CNCCCc1cn(C)c2ccc(F)cc12)O3 (centres unmarked) [Example 12, N-[3-(5-Fluoro-1-methyl-1H-indol-3-yl)propyl]-N-(8-methyl-2,3-dihydro-[1,4]dioxino[2,3-f]quinolin-2-ylmethyl)amine] | 1.55 nM | 13 nM | 138 nM | 81.6%
23 | CCN(CCCc1c[nH]c2ccc(F)cc12)CC1COc2ccc3nc(C)ccc3c2O1 (centres unmarked) [Example 25, N-Ethyl-N-[3-(5-Fluoro-1H-indol-3-yl)propyl]-N-(8-methyl-2,3-dihydro-[1,4]dioxino[2,3-f]quinolin-2-ylmethyl)amine] | 5.47 nM | 0.6 nM | 43.5 nM | 94%
24 | Cc1ccc2c3c(ccc2n1)OC[C@H](CNCCc1c[nH]c2ccc(Cl)cc12)O3 [Example 2] | 19.9 nM | 34 nM | 49.4 nM | 37%
25 | Cc1ccc2c3c(ccc2n1)OCC(CNCCCc1cn(C)c2c(F)cc(F)cc12)O3 (centres unmarked) [Example 26, N-[3-(5,7-Difluoro-1-methyl-1H-indol-3-yl)propyl]-N-(8-methyl-2,3-dihydro-[1,4]dioxino[2,3-f]quinolin-2-ylmethyl)amine] | 3.26 nM | 5.9 nM | 180 nM | 90.2%
26 | Cc1ccc2c3c(ccc2n1)OCC(CNCCCc1c[nH]c2c(F)cc(F)cc12)O3 (centres unmarked) [Example 13, N-[3-(5,7-Difluoro-1H-indol-3-yl)propyl]-N-(8-methyl-2,3-dihydro-[1,4]dioxino[2,3-f]quinolin-2-ylmethyl)amine] | 0.32 nM | 1.05 nM | 64.6 nM | 95%
